Measurements: BigSolDB 2.1

O=C(O)c1ccc(CO)cc1
solubility (mole fraction)
Conditions | in ethanol | in ethyl acetate | in ethyl formate | in isopropanol | in isopropyl acetate | in methanol | in n-butyl acetate | in n-propanol | in water
283.15 K | 0.0289 | 0.00475 | 0.00168 | 0.0268 | 0.00324 | 0.0282 | 0.00341 | 0.0236 | 0.000244
288.15 K | 0.0325 | 0.00528 | 0.00259 | 0.0294 | 0.00444 | 0.0323 | 0.00463 | 0.026 | 0.000254
293.15 K | 0.0367 | 0.00653 | 0.00319 | 0.0337 | 0.00481 | 0.0361 | 0.00508 | 0.0298 | 0.0003
298.15 K | 0.0414 | 0.00797 | 0.00396 | 0.0391 | 0.00599 | 0.0414 | 0.00622 | 0.0345 | 0.00039
303.15 K | 0.0468 | 0.00919 | 0.00431 | 0.044 | 0.00827 | 0.0473 | 0.00854 | 0.0367 | 0.000532
308.15 K | 0.0529 | 0.0109 | 0.00535 | 0.0523 | 0.00969 | 0.0535 | 0.01 | 0.0446 | 0.000641
313.15 K | 0.0599 | 0.0133 | 0.00704 | 0.0602 | 0.0113 | 0.0608 | 0.0117 | 0.0516 | 0.000816
318.15 K | 0.0678 | 0.0161 | 0.00773 | 0.0697 | 0.0127 | 0.0682 | 0.0132 | 0.0591 | 0.000993
323.15 K | 0.0768 | 0.0199 | 0.00889 | 0.0826 | 0.0155 | 0.078 | 0.0158 | 0.0705 | 0.00128
